pEC50: −log10 of the molar value. Like-named read-outs stand apart in the source and are kept apart here.
Tests used:
THR alpha-LBD = biological target: T1, THR alpha-LBD (Homo sapiens, UniProt P10827); assay: THR-α Coactivator Peptide Recruitment Assay (LanthaScreen TR-FRET); format: biochemical
T1 construct: except that THR alpha-LBD of a final concentration 0.25 nM was used; purchased Invitrogen PV4687
How it was run: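 TR-FRET coactivator recruitment with THR alpha-LBD at 0.25 nM final, Fluorescein-SRC2-2 peptide 0.1 nM and Tb-labeled anti-GST antibody 2 nM; 2 h incubation at room temperature. 520/495 nm emission ratio fitted to a four-parameter sigmoidal curve to give EC50.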

THR beta-LBD = biological target: T2, THR beta-LBD (Homo sapiens, UniProt P10828); assay: THR-β Coactivator Peptide Recruitment Assay (LanthaScreen TR-FRET); format: biochemical
T2 construct: THR beta-LBD (the final concentration is 0.5 nM) was added to the 384-well assay plate; purchased Invitrogen PV4686
T2 sequence (P10828 217-461 limits assumed): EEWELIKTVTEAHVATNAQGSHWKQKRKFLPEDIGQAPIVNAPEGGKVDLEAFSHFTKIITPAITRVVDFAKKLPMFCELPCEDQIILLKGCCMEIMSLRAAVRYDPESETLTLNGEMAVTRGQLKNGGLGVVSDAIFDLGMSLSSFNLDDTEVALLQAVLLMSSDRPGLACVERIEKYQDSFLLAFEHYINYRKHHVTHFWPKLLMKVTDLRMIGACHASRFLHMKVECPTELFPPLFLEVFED
How it was run: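 GST-tagged THR beta-LBD (0.5 nM) with test compound recruits fluorescein-SRC2-2 coactivator peptide (0.1 nM), detected with Tb-anti-GST antibody (2 nM).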

[1] = TR-FRET coactivator recruitment, THR alpha-LBD 0.25 nM
[2] = TR-FRET coactivator recruitment, THR alpha-LBD 0.25 nM, read-out: THRα EC50
[3] = TR-FRET coactivator recruitment, THR beta-LBD 0.5 nM
[4] = TR-FRET coactivator recruitment, THR beta-LBD 0.5 nM, read-out: THRβ EC50

T1 sequence (P10827 163-410 isoform P10827-2 limits assumed, other chains not shown): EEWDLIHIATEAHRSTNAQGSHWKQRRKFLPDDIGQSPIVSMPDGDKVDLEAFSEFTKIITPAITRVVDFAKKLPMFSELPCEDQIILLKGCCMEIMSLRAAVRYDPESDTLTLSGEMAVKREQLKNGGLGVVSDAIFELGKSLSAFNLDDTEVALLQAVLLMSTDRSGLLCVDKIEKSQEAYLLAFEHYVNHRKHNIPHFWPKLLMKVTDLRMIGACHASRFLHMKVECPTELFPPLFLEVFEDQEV

## O=C(CNS(=O)(=O)c1cc(Oc2c(Cl)cc(-n3nc(C(F)F)c(=O)[nH]c3=O)cc2Cl)ccc1O)NC1CCC1 [Compound 62, N-cyclobutyl-2-((5-(2,6-dichloro-4-(6-(difluoromethyl)-3,5-dioxo-4,5-dihydro-1,2,4-triazin-2(3H)-yl)phenoxy)-2-hydroxyphenyl)sulfonamido)acetamide]
THR alpha-LBD; [1]
  THRα Emax: B (40~85)
THR alpha-LBD; [2]
  pEC50: 6.00 to 6.70
THR beta-LBD; [3]
  THRβ Emax: B (75~90)
THR beta-LBD; [4]
  pEC50: 7.70 to 8.70

## O=C(CNS(=O)(=O)c1cc(Oc2c(Cl)cc(-n3nc(C(F)F)c(=O)[nH]c3=O)cc2Cl)ccc1O)N1CCC1 [Compound 63, N-[2-(azetidin-1-yl)-2-oxo-ethyl]-5-[2,6-dichloro-4-[6-(difluoromethyl)-3,5-dioxo-1,2,4-triazin-2-yl]phenoxy]-2-hydroxy-benzenesulfonamide]
THR alpha-LBD; [1]
  THRα Emax: B (40~85)
THR alpha-LBD; [2]
  pEC50: < 6.00
THR beta-LBD; [3]
  THRβ Emax: B (75~90)
THR beta-LBD; [4]
  pEC50: 7.00 to 7.70

## O=c1[nH]c(=O)n(-c2cc(Cl)c(Oc3cnc(O)c(S(=O)(=O)NC4CCC4)c3)c(Cl)c2)nc1C(F)F [Compound 64, N-cyclobutyl-5-[2,6-dichloro-4-[6-(difluoromethyl)-3,5-dioxo-1,2,4-triazin-2-yl]phenoxy]-2-hydroxy-pyridine-3-sulfonamide]
THR alpha-LBD; [1]
  THRα Emax: C (<40)
THR alpha-LBD; [2]
  pEC50: < 6.00
THR beta-LBD; [3]
  THRβ Emax: B (75~90)
THR beta-LBD; [4]
  pEC50: < 7.00

## COCCNS(=O)(=O)c1cc(Oc2c(Cl)cc(-n3nc(C(F)F)c(=O)[nH]c3=O)cc2Cl)ccc1O [Compound 65, 5-[2,6-dichloro-4-[6-(difluoromethyl)-3,5-dioxo-1,2,4-triazin-2-yl]phenoxy]-2-hydroxy-N-(2-methoxyethyl) benzenesulfonamide]
THR alpha-LBD; [1]
  THRα Emax: B (40~85)
THR alpha-LBD; [2]
  pEC50: 6.70 to 8.70
THR beta-LBD; [3]
  THRβ Emax: B (75~90)
THR beta-LBD; [4]
  pEC50: > 8.70

## O=c1[nH]c(=O)n(-c2cc(Cl)c(Oc3ccc(O)c(S(=O)(=O)N[C@@H]4CC[C@H](O)C4)c3)c(Cl)c2)nc1C(F)F [Compound 66, 5-(2,6-dichloro-4-(6-(difluoromethyl)-3,5-dioxo-4,5-dihydro-1,2,4-triazin-2(3H)-yl)phenoxy)-2-hydroxy-N-((1R,3S)-3-hydroxycyclopentyl)benzenesulfonamide]
THR alpha-LBD; [1]
  THRα Emax: B (40~85)
THR alpha-LBD; [2]
  pEC50: 6.70 to 8.70
THR beta-LBD; [3]
  THRβ Emax: C (<75)
THR beta-LBD; [4]
  pEC50: 7.70 to 8.70

## O=c1[nH]c(=O)n(-c2cc(Cl)c(Oc3ccc(O)c(S(=O)(=O)N[C@H]4CC[C@@H](O)C4)c3)c(Cl)c2)nc1C(F)F [Compound 67, 5-(2,6-dichloro-4-(6-(difluoromethyl)-3,5-dioxo-4,5-dihydro-1,2,4-triazin-2(3H)-yl)phenoxy)-2-hydroxy-N-((1S,3R)-3-hydroxycyclopentyl)benzenesulfonamide]
THR alpha-LBD; [1]
  THRα Emax: B (40~85)
THR alpha-LBD; [2]
  pEC50: 6.70 to 8.70
THR beta-LBD; [3]
  THRβ Emax: B (75~90)
THR beta-LBD; [4]
  pEC50: 7.70 to 8.70

## NS(=O)(=O)c1cc(Oc2c(Cl)cc(-n3nc(C(F)F)c(=O)[nH]c3=O)cc2Cl)ccc1O [Compound 68, 5-[2,6-dichloro-4-[6-(difluoromethyl)-3,5-dioxo-1,2,4-triazin-2-yl]phenoxy]-2-hydroxy-benzene sulfonamide]
THR alpha-LBD; [1]
  THRα Emax: A (85~110)
THR alpha-LBD; [2]
  pEC50: 6.70 to 8.70
THR beta-LBD; [3]
  THRβ Emax: B (75~90)
THR beta-LBD; [4]
  pEC50: 7.70 to 8.70

## N#C[C@H]1C[C@@H](NS(=O)(=O)c2cc(Oc3c(Cl)cc(-n4nc(C(F)F)c(=O)[nH]c4=O)cc3Cl)ccc2O)C1 [Compound 69, N-((1s,3s)-3-cyanocyclobutyl)-5-(2,6-dichloro-4-(6-(difluoromethyl)-3,5-dioxo-4,5-dihydro-1,2,4-triazin-2(3H)-yl)phenoxy)-2-hydroxybenzenesulfonamide]
THR alpha-LBD; [1]
  THRα Emax: A (85~110)
THR alpha-LBD; [2]
  pEC50: 6.70 to 8.70
THR beta-LBD; [3]
  THRβ Emax: A (90~110)
THR beta-LBD; [4]
  pEC50: > 8.70

## O=c1[nH]c(=O)n(-c2cc(Cl)c(Oc3ccc(O)c(S(=O)(=O)NC4(CO)CC4)c3)c(Cl)c2)nc1C(F)F [Compound 70, 5-(2,6-dichloro-4-(6-(difluoromethyl)-3,5-dioxo-4,5-dihydro-1,2,4-triazin-2(3H)-yl)phenoxy)-2-hydroxy-N-(1-(hydroxymethyl)cyclopropyl)benzenesulfonamide]
THR alpha-LBD; [1]
  THRα Emax: B (40~85)
THR alpha-LBD; [2]
  pEC50: 6.70 to 8.70
THR beta-LBD; [3]
  THRβ Emax: B (75~90)
THR beta-LBD; [4]
  pEC50: 7.70 to 8.70

## O=C(NC1CC1)C1(NS(=O)(=O)c2cc(Oc3c(Cl)cc(-n4nc(C(F)F)c(=O)[nH]c4=O)cc3Cl)ccc2O)CC1 [Compound 71, N-cyclopropyl-1-[[5-[2,6-dichloro-4-[6-(difluoromethyl)-3,5-dioxo-1,2,4-triazin-2-yl]phenoxy]-2-hydroxy-phenyl]sulfonylamino] cyclopropane carboxamide]
THR alpha-LBD; [1]
  THRα Emax: B (40~85)
THR alpha-LBD; [2]
  pEC50: 6.70 to 8.70
THR beta-LBD; [3]
  THRβ Emax: A (90~110)
THR beta-LBD; [4]
  pEC50: 7.70 to 8.70

## CS(=O)(=O)NC1CN(S(=O)(=O)c2cc(Oc3c(Cl)cc(-n4nc(C(F)F)c(=O)[nH]c4=O)cc3Cl)ccc2O)C1 [Compound 73, N-[l-[5-[2,6-dichloro-4-[6-(difluoromethyl)-3,5-dioxo-1,2,4-triazin-2-yl]phenoxy]-2-hydroxy-phenyl]sulfonylazetidin-3-yl] methane sulfonamide]
THR alpha-LBD; [1]
  THRα Emax: B (40~85)
THR alpha-LBD; [2]
  pEC50: 6.70 to 8.70
THR beta-LBD; [3]
  THRβ Emax: C (<75)
THR beta-LBD; [4]
  pEC50: 7.70 to 8.70

## O=c1[nH]c(=O)n(-c2cc(Cl)c(Oc3ccc(O)c(S(=O)(=O)NC4CC5(CC(O)C5)C4)c3)c(Cl)c2)nc1C(F)F (stereo not shown) [Compound 74, 5-[2,6-dichloro-4-[6-(difluoromethyl)-3,5-dioxo-1,2,4-triazin-2-yl]phenoxy]-2-hydroxy-N-(2-hydroxyspiro [3.3]heptan-6-yl) benzene sulfonamide]
THR alpha-LBD; [1]
  THRα Emax: B (40~85)
THR alpha-LBD; [2]
  pEC50: 6.00 to 6.70
THR beta-LBD; [3]
  THRβ Emax: B (75~90)
THR beta-LBD; [4]
  pEC50: 7.00 to 7.70

## O=c1[nH]c(=O)n(-c2cc(Cl)c(Oc3ccc(O)c(S(=O)(=O)N4CC[C@@H](O)C4)c3)c(Cl)c2)nc1C(F)F [Compound 76, (R)-2-(3,5-dichloro-4-(4-hydroxy-3-((3-hydroxypyrrolidin-1-yl)sulfonyl)phenoxy)phenyl)-6-(difluoromethyl)-1,2,4-triazine-3,5(2H,4H)-dione]
THR alpha-LBD; [1]
  THRα Emax: A (85~110)
THR alpha-LBD; [2]
  pEC50: 6.70 to 8.70
THR beta-LBD; [3]
  THRβ Emax: B (75~90)
THR beta-LBD; [4]
  pEC50: > 8.70

## O=c1[nH]c(=O)n(-c2cc(Cl)c(Oc3ccc(O)c(S(=O)(=O)N4CC[C@H](O)C4)c3)c(Cl)c2)nc1C(F)F [Compound 77, (S)-2-(3,5-dichloro-4-(4-hydroxy-3-((3-hydroxypyrrolidin-1-yl)sulfonyl)phenoxy)phenyl)-6-(difluoromethyl)-1,2,4-triazine-3,5(2H,4H)-dione]
THR alpha-LBD; [1]
  THRα Emax: A (85~110)
THR alpha-LBD; [2]
  pEC50: 6.70 to 8.70
THR beta-LBD; [3]
  THRβ Emax: B (75~90)
THR beta-LBD; [4]
  pEC50: > 8.70

## O=C(N[C@H]1C[C@H](NS(=O)(=O)c2cc(Oc3c(Cl)cc(-n4nc(C(F)F)c(=O)[nH]c4=O)cc3Cl)ccc2O)C1)C1CC1 [Compound 78, N-[3-[[5-[2,6-dichloro-4-[6-(difluoromethyl)-3,5-dioxo-1,2,4-triazin-2-yl]-phenoxy]-2-hydroxy-phenyl]-sulfonylamino]-cyclobutyl]-cyclopropanecarboxamide]
THR alpha-LBD
  pEC50: 6.00 to 6.70
THR alpha-LBD; [1]
  THRα Emax: B (40~85)
THR beta-LBD
  pEC50: 7.00 to 7.70
THR beta-LBD; [3]
  THRβ Emax: C (<75)

## N#CC12CC(NS(=O)(=O)c3cc(Oc4c(Cl)cc(-n5nc(C(F)F)c(=O)[nH]c5=O)cc4Cl)ccc3O)(C1)C2 [Compound 79, N-(3-cyanobicyclo[1.1.1]pentan-1-yl)-5-(2,6-dichloro-4-(6-(difluoromethyl)-3,5-dioxo-4,5-dihydro-1,2,4-triazin-2 (3H)-yl)phenoxy)-2-hydroxybenzenesulfonamide]
THR alpha-LBD; [1]
  THRα Emax: A (85~110)
THR alpha-LBD; [2]
  pEC50: 6.70 to 8.70
THR beta-LBD; [3]
  THRβ Emax: B (75~90)
THR beta-LBD; [4]
  pEC50: > 8.70

## O=c1[nH]c(=O)n(-c2cc(Cl)c(Oc3ccc(O)c(S(=O)(=O)NCC4(O)CC4)c3)c(Cl)c2)nc1C(F)F [Compound 80, 5-(2,6-dichloro-4-(6-(difluoromethyl)-3,5-dioxo-4,5-dihydro-1,2,4-triazin-2(3H)-yl)phenoxy)-2-hydroxy-N-((1-hydroxycyclopropyl)methyl)benzenesulfonamide]
THR alpha-LBD; [1]
  THRα Emax: A (85~110)
THR alpha-LBD; [2]
  pEC50: 6.70 to 8.70
THR beta-LBD; [3]
  THRβ Emax: A (90~110)
THR beta-LBD; [4]
  pEC50: 7.70 to 8.70

## O=c1[nH]c(=O)n(-c2cc(Cl)c(Oc3ccc(O)c(S(=O)(=O)NC45CC(O)(C4)C5)c3)c(Cl)c2)nc1C(F)F [Compound 81, 5-(2,6-dichloro-4-(6-(difluoromethyl)-3,5-dioxo-4,5-dihydro-1,2,4-triazin-2(3H)-yl)phenoxy)-2-hydroxy-N-(3-hydroxybicyclo[1.1.1]pentan-1-yl)benzenesulfonamide]
THR alpha-LBD; [1]
  THRα Emax: A (85~110)
THR alpha-LBD; [2]
  pEC50: 6.70 to 8.70
THR beta-LBD; [3]
  THRβ Emax: A (90~110)
THR beta-LBD; [4]
  pEC50: 7.70 to 8.70

## CS(=O)(=O)[C@H]1C[C@H](NS(=O)(=O)c2cc(Oc3c(Cl)cc(-n4nc(C(F)F)c(=O)[nH]c4=O)cc3Cl)ccc2O)C1 [Compound 82, 5-(2,6-dichloro-4-(6-(difluoromethyl)-3,5-dioxo-4,5-dihydro-1,2,4-triazin-2(3H)-yl)phenoxy)-2-hydroxy-N-((1r,3r)-3-(methylsulfonyl)cyclobutyl)benzenesulfonamide]
THR alpha-LBD; [1]
  THRα Emax: B (40~85)
THR alpha-LBD; [2]
  pEC50: < 6.00
THR beta-LBD; [3]
  THRβ Emax: B (75~90)
THR beta-LBD; [4]
  pEC50: 7.00 to 7.70
